A short description of data set [1]: DRUGMATRIX: Tumor Necrosis Factor (TNF), Non-Selective radioligand binding (ligand: [125I] TNF-alpha). It is filed as cell membranes, Membrane. As to conditions: u-937; Not Active = under 50% inhibition at 10 µM.
In data set [2] the target is T1, Neuropeptide Y receptor type 1 (Homo sapiens, UniProt P25929). Also: in other assays of this panel Not Active means under 50% inhibition at 10 µM.
T1 sequence (P25929 whole entry): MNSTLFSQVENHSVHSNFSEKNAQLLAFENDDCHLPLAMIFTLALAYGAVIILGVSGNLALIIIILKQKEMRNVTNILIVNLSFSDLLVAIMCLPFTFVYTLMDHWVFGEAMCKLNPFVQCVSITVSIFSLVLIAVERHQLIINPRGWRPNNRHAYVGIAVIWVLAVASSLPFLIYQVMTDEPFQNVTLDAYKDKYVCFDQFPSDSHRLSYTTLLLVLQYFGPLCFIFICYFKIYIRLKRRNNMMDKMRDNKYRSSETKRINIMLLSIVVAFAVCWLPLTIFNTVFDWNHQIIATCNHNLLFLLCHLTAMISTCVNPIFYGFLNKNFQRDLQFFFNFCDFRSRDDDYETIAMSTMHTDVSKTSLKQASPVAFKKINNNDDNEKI
Format: cell membranes, Membrane. The settings on record: sk-n-mc.

The nature of data set [3]: DRUGMATRIX: Glutamate, NMDA, Phencyclidine radioligand binding (ligand: [3H] TCP). Format: cell membranes, Rattus norvegicus, Wistar, Cerebral cortex, Membrane. As to conditions: Not Active = under 50% inhibition at 10 µM.
Another data set deals with Cytochrome P450 2D6 (Homo sapiens, UniProt P10635). The settings on record: bti-tn-5b1-4.
Chain of Cytochrome P450 2D6 (P10635 whole entry): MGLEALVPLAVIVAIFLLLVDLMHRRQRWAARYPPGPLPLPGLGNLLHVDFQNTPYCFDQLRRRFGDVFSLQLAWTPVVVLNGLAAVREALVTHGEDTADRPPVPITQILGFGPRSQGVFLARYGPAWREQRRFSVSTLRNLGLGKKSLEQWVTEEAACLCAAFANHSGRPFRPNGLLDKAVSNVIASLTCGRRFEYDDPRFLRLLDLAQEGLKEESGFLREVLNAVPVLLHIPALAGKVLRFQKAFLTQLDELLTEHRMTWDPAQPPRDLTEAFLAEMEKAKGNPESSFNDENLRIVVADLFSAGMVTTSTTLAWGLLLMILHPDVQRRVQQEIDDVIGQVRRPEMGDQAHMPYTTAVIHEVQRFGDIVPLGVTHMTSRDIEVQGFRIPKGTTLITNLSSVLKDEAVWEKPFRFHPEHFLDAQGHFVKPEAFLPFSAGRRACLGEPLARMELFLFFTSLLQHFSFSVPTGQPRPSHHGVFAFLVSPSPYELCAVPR
Data set [4] is described as follows: DRUGMATRIX: Nicotinic Acetylcholine radioligand binding (ligand: [125I] Epibatidine). It is filed as cell membranes, Membrane. The settings on record: imr-32; Not Active = under 50% inhibition at 10 µM.
The target in data set [5] is T2, 3-hydroxy-3-methylglutaryl-coenzyme A reductase (Homo sapiens, UniProt P04035).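 Also: enzyme inhibition assay of HMG-CoA reductase using radiolabeled [14C]HMG-CoA as substrate; in other assays of this panel Not Active means under 50% inhibition at 10 µM.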
T2 sequence (P04035 whole entry): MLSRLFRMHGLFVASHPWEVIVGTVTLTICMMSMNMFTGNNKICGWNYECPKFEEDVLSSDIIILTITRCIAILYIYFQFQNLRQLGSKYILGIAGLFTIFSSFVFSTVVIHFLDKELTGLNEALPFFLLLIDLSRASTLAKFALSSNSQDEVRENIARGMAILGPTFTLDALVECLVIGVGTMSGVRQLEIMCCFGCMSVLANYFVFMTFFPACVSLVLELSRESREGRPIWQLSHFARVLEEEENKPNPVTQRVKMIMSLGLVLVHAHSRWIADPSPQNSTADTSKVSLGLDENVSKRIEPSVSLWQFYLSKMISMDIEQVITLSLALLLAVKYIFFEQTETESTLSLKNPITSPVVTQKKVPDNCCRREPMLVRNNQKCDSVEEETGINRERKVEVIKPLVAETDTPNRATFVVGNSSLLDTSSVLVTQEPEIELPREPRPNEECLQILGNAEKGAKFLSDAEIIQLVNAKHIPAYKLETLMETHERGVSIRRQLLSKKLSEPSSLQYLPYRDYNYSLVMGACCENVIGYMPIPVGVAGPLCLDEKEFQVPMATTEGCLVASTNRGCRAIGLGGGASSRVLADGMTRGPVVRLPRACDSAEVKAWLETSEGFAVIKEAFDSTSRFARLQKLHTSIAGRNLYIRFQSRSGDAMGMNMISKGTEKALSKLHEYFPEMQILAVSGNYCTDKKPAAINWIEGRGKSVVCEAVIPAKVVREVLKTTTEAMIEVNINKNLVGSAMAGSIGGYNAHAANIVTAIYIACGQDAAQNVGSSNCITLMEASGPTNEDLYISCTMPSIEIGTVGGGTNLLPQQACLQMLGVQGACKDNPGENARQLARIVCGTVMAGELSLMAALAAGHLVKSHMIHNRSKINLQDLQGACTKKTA
The arrangement: species or system Escherichia coli.

The next data set deals with T3, Adenosine receptor A1 (Homo sapiens, UniProt P30542).
T3 sequence (P30542 whole entry): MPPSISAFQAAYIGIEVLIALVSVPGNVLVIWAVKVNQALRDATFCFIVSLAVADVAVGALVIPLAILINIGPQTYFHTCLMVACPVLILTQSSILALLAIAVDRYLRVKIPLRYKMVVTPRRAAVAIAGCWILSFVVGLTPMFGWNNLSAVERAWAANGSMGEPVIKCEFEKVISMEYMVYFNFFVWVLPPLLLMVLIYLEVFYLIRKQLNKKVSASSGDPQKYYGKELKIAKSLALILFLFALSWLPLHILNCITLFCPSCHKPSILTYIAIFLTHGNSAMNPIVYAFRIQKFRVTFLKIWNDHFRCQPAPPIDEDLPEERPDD
It is filed as cell membranes, CHO, Membrane.

For `CCCN(CCC)S(=O)(=O)c1ccc(C(=O)O)cc1` [PROBENECID], the IC50 result (in data set [1]; in data set [2]; in data set [3]; at Cytochrome P450 2D6; in data set [4]; in data set [5]) was “Not Active” each time. The IC50 result against Adenosine receptor A1 (cho) is on record as “Not Active”. Besides, the Ki result (in data set [1]; in data set [3]; at Cytochrome P450 2D6; in data set [4]) was “Not Active” each time.
Take `O=C1CN=C(c2ccccc2Cl)c2cc([N+](=O)[O-])ccc2N1` [CLONAZEPAM]: the IC50 result (in data set [1]; in data set [2]; in data set [3]; against Cytochrome P450 2D6; in data set [4]; in data set [5]) was “Not Active” in each case. The IC50 entry against Adenosine receptor A1 (cho) was “Not Active”. In addition, the Ki entry (in data set [1]; in data set [3]; on Cytochrome P450 2D6; in data set [4]) was “Not Active” in each case.
Consider `CC(C(=O)O)c1cccc(Oc2ccccc2)c1` (centres undefined) [FENOPROFEN], for which the IC50 result (in data set [1]; in data set [2]; in data set [3]; at Cytochrome P450 2D6; in data set [4]; in data set [5]) was “Not Active” each time. Further, the IC50 entry at Adenosine receptor A1 (cho) is on record as “Not Active”. Besides, the Ki result (in data set [1]; in data set [3]; at Cytochrome P450 2D6; in data set [4]) was “Not Active” each time.
As for GENTAMICIN, the IC50 result (in data set [1]; in data set [2]; in data set [3]; against Cytochrome P450 2D6; in data set [4]; in data set [5]) was “Not Active” each time. The IC50 result against Adenosine receptor A1 (cho) is reported as “Not Active”. In addition, the Ki entry (in data set [1]; in data set [2]; in data set [3]; at Cytochrome P450 2D6; in data set [4]; in data set [5]) was “Not Active” in each case. Also, the Ki entry at Adenosine receptor A1 (cho) was “Not Active”.
For the molecule `CC(=O)Oc1ccc(C(c2ccc(OC(C)=O)cc2)c2ccccn2)cc1` [BISACODYL], the IC50 result (in data set [1]; in data set [2]; in data set [3]; on Cytochrome P450 2D6; in data set [4]; in data set [5]) was “Not Active” each time. Moreover, the IC50 entry on Adenosine receptor A1 (cho) is on record as “Not Active”. Moreover, the Ki entry (in data set [1]; in data set [3]; at Cytochrome P450 2D6; in data set [4]) was “Not Active” throughout.
`C[C@@H]1O[C@@H](O[C@@H]2C=C3CC[C@@H]4[C@H](CC[C@]5(C)[C@@H](c6ccc(=O)oc6)CC[C@]45O)[C@@]3(C)CC2)[C@H](O)[C@H](O)[C@H]1O` [PROSCILLARIDIN]: the IC50 entry (in data set [1]; in data set [2]; in data set [3]; at Cytochrome P450 2D6; in data set [4]; in data set [5]) was “Not Active” throughout. On Adenosine receptor A1 (cho), the IC50 entry was “Not Active”. The Ki result (in data set [1]; in data set [3]; on Cytochrome P450 2D6; in data set [4]) was “Not Active” throughout.
As for `C[n+]1ccc(-c2cc[n+](C)cc2)cc1.[Cl-].[Cl-]` [PARAQUAT DICHLORIDE], the IC50 result (in data set [1]; in data set [2]; in data set [3]; against Cytochrome P450 2D6; in data set [4]; in data set [5]) was “Not Active” in each case. The IC50 result at Adenosine receptor A1 (cho) is “Not Active”. For the same molecule, the Ki entry (in data set [1]; in data set [3]; at Cytochrome P450 2D6; in data set [4]) was “Not Active” each time.
With `Nc1ccn([C@@H]2O[C@H](CO)[C@@H](O)C2(F)F)c(=O)n1` [GEMCITABINE], the IC50 entry (in data set [1]; in data set [2]; in data set [3]; on Cytochrome P450 2D6; in data set [4]; in data set [5]) was “Not Active” throughout. In addition, on Adenosine receptor A1 (cho), the IC50 result is “Not Active”. The Ki entry (in data set [1]; in data set [3]; at Cytochrome P450 2D6; in data set [4]) was “Not Active” each time.
For `Nc1ccn([C@@H]2O[C@H](CO)[C@@H](O)[C@@H]2O)c(=O)n1` [CYTARABINE], the IC50 result (in data set [1]; in data set [2]; in data set [3]; against Cytochrome P450 2D6; in data set [4]; in data set [5]) was “Not Active” each time. Moreover, the IC50 entry on Adenosine receptor A1 (cho) is “Not Active”. Also, the Ki result (in data set [1]; in data set [3]; at Cytochrome P450 2D6; in data set [4]) was “Not Active” each time.
Consider GADOPENTETATE DIMEGLUMINE, for which the IC50 entry (in data set [1]; in data set [2]; in data set [3]; at Cytochrome P450 2D6; in data set [4]; in data set [5]) was “Not Active” throughout. Also, the IC50 entry against Adenosine receptor A1 (cho) is given as “Not Active”. Further, the Ki result (in data set [1]; in data set [2]; in data set [3]; on Cytochrome P450 2D6; in data set [4]; in data set [5]) was “Not Active” in each case. Further, the Ki result at Adenosine receptor A1 (cho) is listed as “Not Active”.
As for `C=CCc1ccc(O)c(OC)c1` [EUGENOL], the IC50 result (in data set [1]; in data set [2]; in data set [3]; on Cytochrome P450 2D6; in data set [4]; in data set [5]) was “Not Active” in each case. Besides, the IC50 entry at Adenosine receptor A1 (cho) is reported as “Not Active”. In addition, the Ki entry (in data set [1]; in data set [3]; at Cytochrome P450 2D6; in data set [4]) was “Not Active” in each case.
As for `CCn1cc(C(=O)O)c(=O)c2cnc(N3CCCC3)nc21` [PIROMIDIC ACID], the IC50 entry (in data set [1]; in data set [2]; in data set [3]; at Cytochrome P450 2D6; in data set [4]; in data set [5]) was “Not Active” each time. Besides, the 50% inhibitory concentration (IC50) entry at Adenosine receptor A1 (cho) is on record as “Not Active”. Further, the Ki result (in data set [1]; in data set [3]; on Cytochrome P450 2D6; in data set [4]) was “Not Active” in each case.
With `COC(=O)Nc1nc2ccc(C(=O)c3cccs3)cc2[nH]1` [NOCODAZOLE], the IC50 result (in data set [1]; in data set [2]; in data set [3]; against Cytochrome P450 2D6; in data set [4]; in data set [5]) was “Not Active” each time. Further, the IC50 at Adenosine receptor A1 (read-out: IC50) is 50.3 µM. Further, the Ki entry in data set [1] is “Not Active”; in data set [3], “Not Active”; on Cytochrome P450 2D6, “Not Active”; in data set [4] it was “Not Active”; on Adenosine receptor A1 (read-out: Ki), 29.4 µM.
For AURANOFIN, the IC50 result (in data set [1]; in data set [2]; in data set [3]; on Cytochrome P450 2D6; in data set [4]; in data set [5]) was “Not Active” throughout. Besides, the IC50 entry against Adenosine receptor A1 (cho) is on record as “Not Active”. Besides, the Ki entry (in data set [1]; in data set [2]; in data set [3]; at Cytochrome P450 2D6; in data set [4]; in data set [5]) was “Not Active” in each case. Besides, at Adenosine receptor A1 (cho), the Ki result is listed as “Not Active”.

The IC50 is the concentration that gives 50% inhibition. One may read the Ki as a dissociation constant, usually derived from enzyme kinetics or from competition with a known ligand.

(Values after ChEMBL document CHEMBL1909046, “DrugMatrix in vitro pharmacology data”.)
